In ChEMBL document CHEMBL2074532, “P-glycoprotein increases the efflux of the androgen dihydrotestosterone and reduces androgen responsive gene activity in prostate tumor cells” (Prostate, 2004):

Biological target: ATP-dependent translocase ABCB1 (Homo sapiens, UniProt P08183)
Test: TP_TRANSPORTER: cell accumulation in P-gp transfected LNCaP cells
Type: functional, cell-based

ATP-dependent translocase ABCB1, sequence (P08183 whole entry): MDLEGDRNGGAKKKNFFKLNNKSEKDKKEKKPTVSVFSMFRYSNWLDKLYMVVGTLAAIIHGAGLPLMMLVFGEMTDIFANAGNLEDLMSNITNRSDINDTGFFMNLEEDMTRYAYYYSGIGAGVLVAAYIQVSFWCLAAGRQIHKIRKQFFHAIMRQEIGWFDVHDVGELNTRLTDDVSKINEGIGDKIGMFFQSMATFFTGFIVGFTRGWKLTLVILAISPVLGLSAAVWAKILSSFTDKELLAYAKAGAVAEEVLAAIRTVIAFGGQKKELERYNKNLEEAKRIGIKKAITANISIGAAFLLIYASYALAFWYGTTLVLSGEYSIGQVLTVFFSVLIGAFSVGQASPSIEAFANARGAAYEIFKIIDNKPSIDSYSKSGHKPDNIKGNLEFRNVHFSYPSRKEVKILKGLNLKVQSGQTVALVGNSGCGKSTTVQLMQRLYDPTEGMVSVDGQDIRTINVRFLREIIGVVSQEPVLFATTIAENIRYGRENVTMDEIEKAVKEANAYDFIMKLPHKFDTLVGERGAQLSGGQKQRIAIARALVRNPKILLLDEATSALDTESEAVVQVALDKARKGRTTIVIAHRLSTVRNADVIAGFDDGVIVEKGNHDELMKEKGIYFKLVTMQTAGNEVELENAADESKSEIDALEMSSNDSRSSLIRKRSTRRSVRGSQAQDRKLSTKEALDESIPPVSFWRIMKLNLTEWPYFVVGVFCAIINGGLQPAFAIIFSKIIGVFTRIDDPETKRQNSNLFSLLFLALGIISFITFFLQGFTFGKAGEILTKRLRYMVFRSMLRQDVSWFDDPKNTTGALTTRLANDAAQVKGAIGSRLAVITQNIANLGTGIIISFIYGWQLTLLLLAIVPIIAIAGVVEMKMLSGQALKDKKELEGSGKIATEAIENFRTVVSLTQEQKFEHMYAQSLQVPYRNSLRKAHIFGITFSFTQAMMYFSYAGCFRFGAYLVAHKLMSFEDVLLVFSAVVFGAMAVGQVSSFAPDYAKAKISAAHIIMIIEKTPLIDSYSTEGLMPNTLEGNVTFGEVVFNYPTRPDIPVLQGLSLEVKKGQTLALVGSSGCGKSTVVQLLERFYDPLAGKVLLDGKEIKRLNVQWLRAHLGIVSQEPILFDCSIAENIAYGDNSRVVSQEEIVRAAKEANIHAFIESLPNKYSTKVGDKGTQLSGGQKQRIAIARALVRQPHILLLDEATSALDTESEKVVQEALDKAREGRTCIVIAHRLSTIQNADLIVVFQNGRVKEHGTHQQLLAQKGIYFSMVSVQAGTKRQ

SMILES | Activity
C[C@]12CCC(=O)C[C@@H]1CC[C@@H]1[C@@H]2CC[C@]2(C)[C@@H](O)CC[C@@H]12 [STANOLONE] | substrate [+]
CC[C@]1(O)C[C@@H]2CN(CCc3c([nH]c4ccccc34)[C@@](C(=O)OC)(c3cc4c(cc3OC)N(C)[C@H]3[C@@](O)(C(=O)OC)[C@H](OC(C)=O)[C@]5(CC)C=CCN6CC[C@]43[C@@H]65)C2)C1 [VINBLASTINE] | substrate [+]
